What was measured:
293T cells [1] = experiment: Cell survival rate assay (CCK-8); type: cell-based; settings: LNP with 1.5 μg Fluc-mRNA, 24 hours, CCK-8
Description: Cell recovery and passage: 293T cells were recovered, cultured in a culture dish, and passaged to the required number of cells.
(§1) Seeding plate: The cells in the culture dish were digested and counted. Cells were spread in a 96-well plate at 10,000 cells per well and in a 12-well plate at 150,000 cells per well. Cells were cultured overnight until the cells adhered to the wall.
An LNP formulation containing 1.5 μg of Fluc-mRNA (prepared according to example 4, the carrier components of the LNP formulation were cationic lipid, neutral lipid, structured lipid and polymer-conjugated lipid at a molar ratio of 49:10:39.5:1.5, wherein the cationic lipid was listed in Table 1) and the formulation of Lipofectamine 3000 were added to the cell culture medium of a 96-well plate, and further cultivated for 24 hours. 10 μL of CCK-8 solution was then added to each well, and the culture plate was incubated in an incubator for 1 hour. The absorbance at 450 nm was measured by a microplate reader.

[2] = Particle size and polydispersity index (PDI) of lipid nanoparticles by dynamic light scattering; type: physicochemical; settings: for PDI: LNP formulation of the cationic lipid, 25° C.; for Particle size: LNP formulation of the cationic lipid/DSPC/cholesterol/DMG-PEG2000 49:10:39.5:1.5, 25° C.
Description: The particle size and polydispersity index (PDI) were determined by dynamic light scattering using Malvern laser particle size analyzer.
10 μL of the liposome solution was weighed, diluted to 1 mL with RNase-free deionized water, and added to the sample pool. Each sample was measured in triplicate. The measurement conditions were: […] scattering angle, and 25° C.

[3] = Detection of encapsulation efficiency, drug loading concentration and total RNA concentration (RiboGreen); type: physicochemical; settings: LNP formulation prepared from the cationic lipid
From the text: Encapsulation efficiency is a key quality attribute of liposomes, which refers to the percentage of drug content encapsulated in the lipid bimolecular layer accounting for the total drug dose and can reflect the degree of drug encapsulation in liposomes. The Chinese Pharmacopoeia stipulates that the encapsulation efficiency should generally not be less than 80%.
The drug loading amount is the ratio of the amount of drug in the liposome to the total amount of drug and carrier in the liposome. The drug loading amount directly affects the clinical application dose of the drug. […] The drug loading concentration is proportional to the drug loading amount, and the relative proportion of the drug loading concentrations can represent the relative proportion of the drug loading amounts. The relative ratio of the total RNA concentrations may represent the relative ratio of the amounts of mRNA carried by the LNP formulations.
1×TE buffer, 0.1% Triton X-100 buffer, RiboGreen reagent (1: 200) and mRNA standard stock solution were prepared.
An appropriate amount of the sample was added to an appropriate amount of 1×TE buffer, and the mixture was diluted to obtain a solution containing approximately […] sample per 1 mL. Then the sample was added to a 96-well plate, and 50 μL of the diluted test sample or the mRNA standard stock solution was added to each well, then 1×TE buffer and 0.1% Triton X-100 buffer were added. The sample was incubated at 37° C. for 10 minutes, and 100 μL RiboGreen reagent (1:200) was added to each well of the test sample in the 96-well plate. The sample was centrifugated, and the data were read using a microplate reader, and processed.

293T cells [4] = experiment: Fluorescent detection of Fluc-mRNA (cell transfection efficiency of LNP formulations); type: cell-based; settings: for Relative light unit (RLU): LNP with 0.3 μg Fluc-mRNA, 96-well plate, 24 hours
Description: as §1
The corresponding reagents were added according to the instructions of the Gaussia Luciferase Assay Kit, and the fluorescence expression intensity of each well was detected by an IVIS fluorescence detection system.

female BALB/C mice [5] = experiment: In vivo imaging in mice of Fluc-mRNA LNP formulations (mRNA expression and duration); settings: Fluc-mRNA LNP intramuscular; for average radiation intensity, 6 h: 6 h after administration; for average radiation intensity, 24 h: 24 h after administration; for average radiation intensity, 48 h: 48 h after administration; for average radiation intensity, 7 d: 7 d after administration
Description: (§2) The LNP formulation (prepared according to Example 4) containing […] Fluc-mRNA was injected intramuscularly into female BALB/C mice aged 4-6 weeks and weighed 17-19 g, and the mice were intraperitoneally injected with fluorescent imaging substrate at specific time points after administration (6h, 24 h, 48h and 7d), where the mice were allowed to free move for 5 minutes, and then the average radiation intensity (corresponding to fluorescence expression intensity) of the protein expression of the mRNA carried by the LNP in the mice was detected by the IVIS Spectrum small animal in vivo imaging system.

female BALB/C mice [6] = experiment: Distribution of liposomes in mice (protein expression in liver, spleen, lung, heart and kidney); type: in vivo
Description: as §2
Current mRNA vaccines usually express proteins in muscle.

293T cells [7] = experiment: Fluorescent detection of Fluc-mRNA (cell transfection efficiency of LNP formulations); type: cell-based

Molecule | PDI [2] [%] | Particle size [2] [nm] | Drug loading concentration [3] [µg/mL] | Encapsulation efficiency [3] [%] | Total RNA concentration [3] [µg/mL] | protein expression in the liver (female BALB/C mice [6]; mouse, in vivo) | protein expression in the spleen (female BALB/C mice [6]; mouse, in vivo) | Cell survival rate (293T cells [1]) [%] | Relative light unit (RLU) (293T cells [4]) | average radiation intensity, 6 h (female BALB/C mice [5]) | average radiation intensity, 24 h (female BALB/C mice [5]) | average radiation intensity, 48 h (female BALB/C mice [5]) | average radiation intensity, 7 d (female BALB/C mice [5]) | other results
CCCCCCCCCCCCC(O)CN(C)CCCCCC(=O)OCC(CCCCCC)CCCCCCCC (stereo not shown) [HHMA, reference compound] | 16.6 | 144 | 32.65 | 60.2 | 36.44 | had protein expression in the liver |  | 64.27 | 2078940 | 661080 | 120010 | 33346 | 5958 | 
bis(3-hexylnonyl) 8,8′-((2-hydroxyethyl) azanediyl)dioctanoate [Compound 23, reference compound] | 12.1 | 147 | 20.01 | 56.2 | 31.05 |  |  | 69.11 | 1402597 | 581400 | 100970 | 32917 | 6105 | Multiple of YK-401 (293T cells [4]): 4.00; protein expression in the liver (female BALB/C mice [6]; mice, intramuscular Fluc-mRNA LNP, at 6h (FIG. 14)): had protein expression in the liver; Multiple of YK-402 (293T cells [7]; RLU of YK-402 divided by RLU of the lipid named in the row): 3.60; Multiple of YK-403 (293T cells [7]; RLU of YK-403 divided by RLU of the lipid named in the row): 3.74; Multiple of YK-407 (293T cells [7]; RLU of YK-407 divided by RLU of the lipid named in the row): 14.53; Multiple of YK-422 (293T cells [7]; RLU of YK-422 divided by RLU of the lipid named in the row): 4.59; Multiple of YK-423 (293T cells [7]; RLU of YK-423 divided by RLU of the lipid named in the row): 4.44; Ratio relative to SM-102 (RLU, times that of SM-102) (293T cells [7]; RLU of the lipid divided by RLU of SM-102): 0.82
CCCCCCCCC(CCCCCCCC)OC(=O)CCCCCCCN(CCO)CCCCCCCC(=O)OCCC(CCCCCC)CCCCCC [Compound 21, reference compound] |  |  |  |  |  | had protein expression in the liver |  | 67.84 | 1511024 | 600500 | 111040 | 31540 | 6378 | 

Continued, in another order:

PDI [2] [%] | Particle size [2] [nm] | Drug loading concentration [3] [µg/mL] | Encapsulation efficiency [3] [%] | Total RNA concentration [3] [µg/mL] | protein expression in the liver (female BALB/C mice [6]; mouse, in vivo) | protein expression in the spleen (female BALB/C mice [6]; mouse, in vivo) | Molecule | Cell survival rate (293T cells [1]) [%] | Relative light unit (RLU) (293T cells [4]) | average radiation intensity, 6 h (female BALB/C mice [5]) | average radiation intensity, 24 h (female BALB/C mice [5]) | average radiation intensity, 48 h (female BALB/C mice [5]) | average radiation intensity, 7 d (female BALB/C mice [5]) | other results
18.2 | 205 | 26.88 | 63.3 | 37.86 | had protein expression in the liver |  | CCCCCCCCC(CCCCCC)C(=O)OCCCCCCN(CCCCO)CCCCCCOC(=O)C(CCCCCC)CCCCCCCC (stereo not shown) [ALC-0315, reference compound] | 47.21 | 2189470 | 841020 | 189740 | 40125 | 7014 | 
17.2 | 149 | 24.96 | 75.6 | 33.01 | had no protein expression in the liver |  | CCCCCCCCCCOC(=O)CCCN(CCO)CCCN(CCO)CCCCCCOC(=O)CC(CCCCCC)CCCCCC [YK-418, 6-((3-((4-(decyloxy)-4-oxobutyl)(2-hydroxyethyl)amino)propyl)(2-hydroxyethyl)amino)hexyl 3-hexylnonanoate] | 21.05 | 111251 |  |  |  |  | 
5.2 | 150 | 36.72 | 86.3 | 42.57 | had no protein expression in the liver |  | CCCCCCCCCCOC(=O)CCCCCN(CCO)CCN(CCO)CCCCCC(=O)OCCC(CCCCCC)CCCCCC [YK-411] | 16.33 | 7976 | 5850 | 2022 | 975 | 480 | 
22.3 | 154 | 26.53 | 62.9 | 36.04 | had protein expression in the liver | had protein expression in the spleen | CCCCCCCCCCCOC(=O)CCCCCN(CCO)CCCCCCCC(=O)OC(CCCCCCCC)CCCCCCCC [SM-102, reference compound] | 67.90 | 1704121 | 691480 | 123380 | 32871 | 6723 | 
16.1 | 170 | 32.84 | 92.8 | 35.39 | had no protein expression in the liver | had protein expression in the spleen | CCCCCCCCC(CCCCCCCC)COC(=O)CCCCCN(CCCO)CCCCN(CCCO)CCCCCC(=O)OCC(CCCCCCCC)CCCCCCCC [YK-424, bis(2-octyldecyl) 6,6′-(butane-1,4-diylbis((3-hydroxypropyl)azanediyl))dihexanoate] | 27.93 | 2883414 |  |  |  |  | 
11.2 | 169 | 30.40 | 88.3 | 34.44 | had no protein expression in the liver | had protein expression in the spleen | CCCCCCCCC(CCCCCCCC)OC(=O)CCCCCN(CCO)CCCN(CCO)CCCCCC(=O)OC(CCCCCCCC)CCCCCCCC [YK-419, di(heptadecan-9-yl) 6,6′-(propane-1,3-diyl-bis((2-hydroxyethyl)azanediyl))dihexanoate] | 38.92 | 3167322 |  |  |  |  | 
16.0 | 189 | 27.52 | 63.4 | 38.50 |  |  | CCCCCCCCCCOC(=O)CCCN(CCO)CCCCCC(=O)OCC(CCCCCCCC)CCCCCCCC [YK-009, reference compound] | 70.43 | 5146376 | 981240 | 705470 | 100560 | 9555 | 

Source: patent US12545637B2, “Extrahepatic targeted cationic lipid compound with high efficiency and low toxicity and its composition” (BEIJING YOUCARE KECHUANG PHARMACEUTICAL TECHNOLOGY CO., LTD., priority 2023, dated 2026)
